Results published in patent US6740642B2, “Macrolides with antibacterial activity” (BAsilea Parmaceutica AG, priority 2000, dated 2004).
In brackets after ≈: the same amount, converted by molar mass.

Legend:
Experiment in all cases: MIC, standard microdilution
E. coli ATCC25922 = assay type: cell-based; conditions: Escherichia coli, read-out: minimum inhibitory concentration (MIC)
From the text: (§1) The antibacterial activities of the compounds have been determined by standard microdilution technique (National Committee for Clinical Laboratory Standards. 1997. Methods for dilution antimicrobial susceptibility tests for bacteria that grow aerobically, 4th edition. Approved standard M7-A4. National Committee for Clinical Laboratory Standards, Wayne, Pa.).

[1] = test system: P. aeruginosa ATCC27853 (+Ery. 32 μg/ml); assay type: cell-based
From the text: as §1

S. aureus ATCC29213 = assay type: cell-based, Staphylococcus aureus; conditions: Staphylococcus aureus, read-out: minimum inhibitory concentration (MIC)
From the text: as §1

S. aureus 1086 = assay type: cell-based, Staphylococcus aureus; conditions: Staphylococcus aureus, read-out: minimum inhibitory concentration (MIC)
From the text: as §1

S. aureus 745 = assay type: cell-based, Staphylococcus aureus; conditions: Staphylococcus aureus, read-out: minimum inhibitory concentration (MIC)
From the text: as §1

St. pneumoniae 1/1 = assay type: cell-based, Streptococcus pneumoniae; conditions: Streptococcus pneumoniae, read-out: minimum inhibitory concentration (MIC)
From the text: as §1

St. pneumoniae SL199T = assay type: cell-based, Streptococcus pneumoniae; conditions: Streptococcus pneumoniae, read-out: minimum inhibitory concentration (MIC)
From the text: as §1

St. pneumoniae 12288 = assay type: cell-based, Streptococcus pneumoniae; conditions: Streptococcus pneumoniae, read-out: minimum inhibitory concentration (MIC)
From the text: as §1

St. pneumoniae 1/4 = assay type: cell-based, Streptococcus pneumoniae; conditions: Streptococcus pneumoniae, read-out: minimum inhibitory concentration (MIC)
From the text: as §1

Row | SMILES | MIC (E. coli ATCC25922) [µg/mL] | minimum inhibitory concentration (MIC) [1] [µg/mL] | MIC (S. aureus ATCC29213) [µg/mL] | MIC (S. aureus 1086) [µg/mL] | MIC (S. aureus 745) [µg/mL] | MIC (St. pneumoniae 1/1) [µg/mL] | MIC (St. pneumoniae SL199T) [µg/mL] | MIC (St. pneumoniae 12288) [µg/mL] | MIC (St. pneumoniae 1/4) [µg/mL]
1 | CC[C@H]1OC(=O)[C@H](C)C(=O)[C@H](C)[C@@H](O[C@@H]2O[C@H](C)C[C@H](N(C)C)[C@H]2O)[C@](C)(OC)C[C@@H](C)C(=O)[C@H](C)[C@H]2[C@H](SCCn3cncn3)C(=O)O[C@@]21C [Compound I-21, (3S,3aR,4R,6R,8R,9R,10R,12R,15R,15aS)-15-Ethyloctahydro-8-methoxy-4,6,8,10,12,15a-hexamethyl-3-[[2-[1H-1,2,4-triazol-1-yl]ethyl]thio]-9-[[3,4,6-trideoxy-3-(dimethylamino)-β-D-xylo-hexopyranosyl]oxy]-2H-furo[2,3-c]oxacyclotetradecin-2,5,11,13(3H,6H,12H)-tetrone] | > 16 | >16 | 0.25 (≈ 0.338 µM) | 0.25 (≈ 0.338 µM) | > 16 | ≤ 0.12 | 8 (≈ 10.8 µM) | > 16 | > 16
2 | CC[C@H]1OC(=O)[C@H](C)C(=O)[C@H](C)[C@@H](O[C@@H]2O[C@H](C)C[C@H](N(C)C)[C@H]2O)[C@](C)(OC)C[C@@H](C)C(=O)[C@H](C)[C@H]2[C@H](SCCc3ccccc3)C(=O)O[C@@]21C [Compound I-1, (3S,3aR,4R,6R,8R,9R,10R,12R,15R,15aS)-15-Ethyloctahydro-8-methoxy-4,6,8,10,12,15a-hexamethyl-3-[[2-phenylethyl]thio]-9-[[3,4,6-trideoxy-3-(dimethylamino)-β-D-xylo-hexopyranosyl]oxy]-2H-furo[2,3-c]oxacyclotetradecin-2,5,11,13(3H,6H,12H)-tetrone] | > 16 | >16 | ≤ 0.25 | ≤ 0.25 | > 16 | ≤ 0.5 | 4 (≈ 5.35 µM) | 32 (≈ 42.8 µM) | 1 (≈ 1.34 µM)
3 | CC[C@H]1OC(=O)[C@H](C)C(=O)[C@H](C)[C@@H](O[C@@H]2O[C@H](C)C[C@H](N(C)C)[C@H]2O)[C@](C)(OC)C[C@@H](C)C(=O)[C@H](C)[C@H]2[C@H](SCCCn3cnc4c(N)ncnc43)C(=O)O[C@@]21C [Compound I-26, (3S,3aR,4R,6R,8R,9R,10R,12R,15R,15aS)-3-[[3-[6-Amino-9H-purine-9-yl]propyl]thio]-15-ethyloctahydro-8-methoxy-4,6,8,10,12,15a-hexamethyl-9-[[3,4,6-trideoxy-3-(dimethylamino)-β-D-xylo-hexopyranosyl]oxy]-2H-furo[2,3-c]oxacyclotetradecin-2,5,11,13(3H,6H,12H)-tetrone] | 16 (≈ 19.5 µM) | >16 | ≤ 0.12 | ≤ 0.12 | > 16 | ≤ 0.25 | ≤ 0.25 | 0.25 (≈ 0.305 µM) | ≤ 0.25
4 | CO[C@@H]1[C@@H](O[C@@H]2O[C@H](C)[C@@H](O[C@H]3C[C@@](C)(O)[C@@H](OC(=O)CC(C)C)[C@H](C)O3)[C@H](N(C)C)[C@H]2O)[C@@H](CC=O)C[C@@H](C)[C@@H](O)/C=C/C=C/C[C@@H](C)OC(=O)C[C@H]1OC(C)=O [Josamycin, reference compound] | > 16 | >16 | 2 (≈ 2.42 µM) | 2 (≈ 2.42 µM) | > 16 | ≤ 0.12 | > 16 | > 16 | ≤ 4
5 | CC[C@H]1OC(=O)[C@H](C)C(=O)[C@H](C)[C@@H](O[C@@H]2O[C@H](C)C[C@H](N(C)C)[C@H]2O)[C@](C)(OC)C[C@@H](C)C(=O)[C@H](C)[C@H]2CC(=O)O[C@@]21C [Compound I-25, (3aR,4R,6R,8R,9R,10R,12R,15R,15aS)-15-Ethyloctahydro-8-methoxy-4,6,8,10,12,15a-hexamethyl-9-[[3,4,6-trideoxy-3-(dimethylamino)-β-D-xylo-hexopyranosyl]oxy]-2H-furo[2,3-c]oxacyclotetradecin-2,5,11,13 (3H,6H,12H)-tetrone] | > 16 | >16 | 0.5 (≈ 0.817 µM) | 0.5 (≈ 0.817 µM) | > 16 | ≤ 0.12 | > 16 | > 16 | 16 (≈ 26.2 µM)
6 | CC[C@H]1OC(=O)[C@H](C)C(=O)[C@H](C)[C@@H](O[C@@H]2O[C@H](C)C[C@H](N(C)C)[C@H]2O)[C@](C)(OC)C[C@@H](C)C(=O)[C@H](C)[C@H]2[C@H](Sc3ccccc3)C(=O)O[C@@]21C [Compound I-3, (3S,3aR,4R,6R,8R,9R,10R,12R,15R,15aS)-15-Ethyloctahydro-8-methoxy-4,6,8,10,12,15a-hexamethyl-3-[phenylthio]-9-[[3,4,6-trideoxy-3-(dimethylamino)-β-D-xylo-hexopyranosyl]oxy]-2H-furo[2,3-c]oxacyclotetradecin-2,5,11,13(3H,6H,12H)-tetrone] | > 16 | >16 | 0.5 (≈ 0.695 µM) | 0.5 (≈ 0.695 µM) | > 16 | ≤ 0.5 | 16 (≈ 22.2 µM) | 16 (≈ 22.2 µM) | 2 (≈ 2.78 µM)
7 | CC[C@H]1OC(=O)[C@H](C)C(=O)[C@H](C)[C@@H](O[C@@H]2O[C@H](C)C[C@H](N(C)C)[C@H]2O)[C@](C)(OC)C[C@@H](C)C(=O)[C@H](C)[C@H]2[C@H](SCCn3ccc(-c4ccncc4)n3)C(=O)O[C@@]21C [Compound I-19, (3S,3aR,4R,6R,8R,9R,10R,12R,15R,15aS)-15-Ethyloctahydro-8-methoxy-4,6,8,10,12,15a-hexamethyl-3-[[2-[3-(4-pyridinyl)-1H-pyrazol-1-yl]ethyl]thio]-9-[[3,4,6-trideoxy-3-(dimethylamino)-β-D-xylo-hexopyranosyl]oxy]-2H-furo[2,3-c]oxacyclotetradecin-2,5,11,13(3H,6H,12H)-tetrone] | > 16 | >16 | ≤ 0.12 | ≤ 0.12 | > 16 | ≤ 0.12 | 1 (≈ 1.23 µM) | 4 (≈ 4.91 µM) | ≤ 0.12
8 | CC[C@H]1OC(=O)[C@H](C)C(=O)[C@H](C)[C@@H](O[C@@H]2O[C@H](C)C[C@H](N(C)C)[C@H]2O)[C@](C)(OC)C[C@@H](C)C(=O)[C@H](C)[C@H]2[C@H](SCCCc3ccccn3)C(=O)O[C@@]21C [Compound I-10, (3S,3aR,4R,6R,8R,9R,10R,12R,15R,15aS)-15-Ethyloctahydro-8-methoxy-4,6,8,10,12,15a-hexamethyl-3-[[3-(2-pyridinyl)propyl]thio]-9-[[3,4,6-trideoxy-3-(dimethylamino)-β-D-xylo-hexopyranosyl]oxy]-2H-furo[2,3-c]oxacyclotetradecin-2,5,11,13(3H,6H,12H)-tetrone] | > 16 | >16 | ≤ 0.12 | ≤ 0.12 | > 16 | ≤ 0.12 | 2 (≈ 2.62 µM) | 8 (≈ 10.5 µM) | 0.25 (≈ 0.328 µM)
9 | CC[C@H]1OC(=O)[C@H](C)C(=O)[C@H](C)[C@@H](O[C@@H]2O[C@H](C)C[C@H](N(C)C)[C@H]2O)[C@](C)(OC)C[C@@H](C)C(=O)[C@H](C)[C@H]2[C@H](SCCn3cnc(-c4cccnc4)c3)C(=O)O[C@@]21C [Compound I-20, (3S,3aR,4R,6R,8R,9R,10R,12R,15R,15aS)-15-Ethyloctahydro-8-methoxy-4,6,8,10,12,15a-hexamethyl-3-[[2-[4-(3-pyridinyl)-1H-imidazol-1-yl]ethyl]thio]-9-[[3,4,6-trideoxy-3-(dimethylamino)-β-D-xylo-hexopyranosyl]oxy]-2H-furo[2,3-c]oxacyclotetradecin-2,5,11,13(3H,6H,12H)-tetrone] | > 16 | >16 | 0.25 (≈ 0.307 µM) | 0.25 (≈ 0.307 µM) | > 16 | ≤ 0.12 | 2 (≈ 2.45 µM) | 2 (≈ 2.45 µM) | ≤ 0.12
10 | CC[C@H]1OC(=O)[C@H](C)C(=O)[C@H](C)[C@@H](O[C@@H]2O[C@H](C)C[C@H](N(C)C)[C@H]2O)[C@](C)(OC)C[C@@H](C)C(=O)[C@H](C)[C@H]2[C@H](C#N)C(=O)O[C@@]21C [Compound I-23, (3R,3aS,4R,6R,8R,9R,10R,12R,15R,15aS)-15-Ethyltetradecahydro-8-methoxy-4,6,8,10,12,15a-hexamethyl-2,5,11,13-tetraoxo-9-[[3,4,6-trideoxy-3-(dimethylamino)-β-D-xylo-hexopyranosyl]oxy]-2H-furo[2,3-c]oxacyclotetradecin-3-carbonitrile] | > 16 | >16 | ≤ 0.25 | ≤ 0.25 | > 16 | ≤ 0.5 | 32 (≈ 50.3 µM) | > 32 | 8 (≈ 12.6 µM)
